# In patent publication US20230085307A1, “PYRIDAZINONE COMPOUND AND HERBICIDE” (NISSAN CHEMICAL CORPORATION, priority 2019, published 2023):
# What was measured:
# [1] = system: velvetleaf; experiment: Test Example 5: herbicidal effect by foliage application, plastic box (Table 20, symbol M); format: in vivo, velvetleaf (Abutilon theophrasti); details: foliage application, three weeks after application; for M: velvetleaf, herbicidal effect: AAH 320 g/ha
# Method in brief: (§1)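 Sow seeds spot-wise in sterilized diluvial soil; cover with ~1.5 cm soil. Grow 14 days in greenhouse, 25° C. to 30° C. Spray foliage with emulsion diluted to predetermined amount. Rate effect after 3 weeks.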
# [2] = system: persian speedwell; experiment: Test Example 5: herbicidal effect by foliage application, plastic box (Table 20, symbol R); format: in vivo, Persian speedwell (Veronica persica); details: foliage application, three weeks after application; for R: persian speedwell, herbicidal effect: AAH 320 g/ha
# Method in brief: as §1
# [3] = system: Italian ryegrass; experiment: Test Example 4: herbicidal effect by soil treatment (Table 19, symbol K); format: in vivo, Italian ryegrass (Lolium multiflorum); details: for herbicidal effect rating, K: Italian ryegrass: amount of applied herbicide 320 g/ha
# Method in brief: (§2)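 Applied as a water-diluted emulsion, the compound was sprayed onto soil covering newly sown seeds. Evaluation came three weeks after application, in a greenhouse held at 25° C. to 30° C.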
# [4] = system: chickweed; experiment: Test Example 5: herbicidal effect by foliage application, plastic box (Table 20, symbol P); format: in vivo, common chickweed (Stellaria media); details: foliage application, three weeks after application; for P: chickweed, herbicidal effect: AAH 320 g/ha
# Method in brief: as §1
# [5] = system: chickweed; experiment: Test Example 4: herbicidal effect by soil treatment (Table 19, symbol P); format: in vivo, common chickweed (Stellaria media); details: for herbicidal effect rating, P: chickweed: amount of applied herbicide 320 g/ha
# Method in brief: as §2
# [6] = system: lambsquarters; experiment: Test Example 4: herbicidal effect by soil treatment (Table 19, symbol O); format: in vivo, lambsquarters (Chenopodium album); details: for herbicidal effect rating, O: lambsquarters: amount of applied herbicide 320 g/ha
# Method in brief: as §2
# [7] = system: redroot pigweed; experiment: Test Example 5: herbicidal effect by foliage application, plastic box (Table 20, symbol N); format: in vivo, redroot pigweed (Amaranthus retroflexus); details: foliage application, three weeks after application; for N: redroot pigweed, herbicidal effect: AAH 320 g/ha
# Method in brief: as §1
# [8] = system: Italian ryegrass; experiment: Test Example 5: herbicidal effect by foliage application, plastic box (Table 20, symbol K); format: in vivo, Italian ryegrass (Lolium multiflorum); details: foliage application, three weeks after application; for K: Italian ryegrass, herbicidal effect: AAH 320 g/ha
# Method in brief: as §1
# [9] = system: barnyard grass; experiment: Test Example 3: herbicidal effect by foliage application, Wagner pot (Table 18, symbol H); format: in vivo, barnyard grass (Echinochloa crus-galli); details: 320 g/ha
# Method in brief: (§3)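 Plants were sown in alluvial soil held under 0.1–0.5 cm standing water and grown 14 days in a greenhouse at 25–30 °C. An emulsifiable formulation, water-diluted to the set dose, was then sprayed onto the foliage, and effects were scored three weeks later using previously defined criteria.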
# [10] = system: windgrass; experiment: Test Example 5: herbicidal effect by foliage application, plastic box (Table 20, symbol L); format: in vivo, windgrass (Apera spica-venti); details: foliage application, three weeks after application; for L: windgrass, herbicidal effect: AAH 320 g/ha
# Method in brief: as §1
# [11] = system: rice flat sedge; experiment: Test Example 3: herbicidal effect by foliage application, Wagner pot (Table 18, symbol E); format: in vivo, rice flat sedge (Cyperus iria); details: 320 g/ha
# Method in brief: as §3
# [12] = system: wild oat; experiment: Test Example 5: herbicidal effect by foliage application, plastic box (Table 20, symbol I); format: in vivo, wild oat (Avena fatua); details: foliage application, three weeks after application; for I: wild oat, herbicidal effect: AAH 320 g/ha
# Method in brief: as §1
# [13] = system: Japanese bulrush; experiment: Test Example 2: herbicidal activity, application during weed generation under submerged conditions (Table 17, symbol B); format: in vivo, Japanese bulrush (Schoenoplectus juncoides); details: AAH 320 g/ha; application during weed generation, submerged conditions
# Method in brief: (§4)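 Herbicide emulsion, diluted with water to the chosen amount, is applied onto 4 cm floodwater over alluvial soil where the weeds were co-sown and raised at 25–30° C. Application timing: 1–2 leaves. Assessment: three weeks afterwards.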
# [14] = system: green foxtail; experiment: Test Example 5: herbicidal effect by foliage application, plastic box (Table 20, symbol G); format: in vivo, green foxtail (Setaria viridis); details: foliage application, three weeks after application; for G: green foxtail, herbicidal effect: AAH 320 g/ha
# Method in brief: as §1
# [15] = system: wild oat; experiment: Test Example 4: herbicidal effect by soil treatment (Table 19, symbol I); format: in vivo, wild oat (Avena fatua); details: for herbicidal effect rating, I: wild oat: amount of applied herbicide 320 g/ha
# Method in brief: as §2
# [16] = system: late watergrass; experiment: Test Example 2: herbicidal activity, application during weed generation under submerged conditions (Table 17, symbol A); format: in vivo, late watergrass (Echinochloa oryzicola); details: AAH 320 g/ha; application during weed generation, submerged conditions
# Method in brief: as §4
# [17] = system: barnyard grass; experiment: Test Example 4: herbicidal effect by soil treatment (Table 19, symbol H); format: in vivo, barnyard grass (Echinochloa crus-galli); details: for herbicidal effect rating, H: barnyard grass: amount of applied herbicide 320 g/ha
# Method in brief: as §2
# [18] = system: redroot pigweed; experiment: Test Example 4: herbicidal effect by soil treatment (Table 19, symbol N); format: in vivo, redroot pigweed (Amaranthus retroflexus); details: for herbicidal effect rating, N: redroot pigweed: amount of applied herbicide 320 g/ha
# Method in brief: as §2
# [19] = system: velvetleaf; experiment: Test Example 4: herbicidal effect by soil treatment (Table 19, symbol M); format: in vivo, velvetleaf (Abutilon theophrasti); details: for herbicidal effect rating, M: velvetleaf: amount of applied herbicide 320 g/ha
# Method in brief: as §2
# [20] = system: southern crabgrass; experiment: Test Example 4: herbicidal effect by soil treatment (Table 19, symbol F); format: in vivo, southern crabgrass (Digitaria ciliaris); details: for herbicidal effect rating, F: southern crabgrass: amount of applied herbicide 320 g/ha
# Method in brief: as §2
# [21] = system: blackgrass; experiment: Test Example 5: herbicidal effect by foliage application, plastic box (Table 20, symbol J); format: in vivo, blackgrass (Alopecurus myosuroides); details: foliage application, three weeks after application; for J: blackgrass, herbicidal effect: AAH 320 g/ha
# Method in brief: as §1
# [22] = system: green foxtail; experiment: Test Example 4: herbicidal effect by soil treatment (Table 19, symbol G); format: in vivo, green foxtail (Setaria viridis); details: for herbicidal effect rating, G: green foxtail: amount of applied herbicide 320 g/ha
# Method in brief: as §2
SMILES,"herbicidal effect rating, K: Italian ryegrass [3]","herbicidal effect rating, P: chickweed [5]","herbicidal effect rating, O: lambsquarters [6]","herbicidal effect on H (barnyard grass), rating 0-5 [9]","herbicidal effect on E (rice flat sedge), rating 0-5 [11]","herbicidal effect rating, B: Japanese bulrush [13]","herbicidal effect rating, I: wild oat [15]","herbicidal effect rating, A: late watergrass [16]","herbicidal effect rating, H: barnyard grass [17]","herbicidal effect rating, N: redroot pigweed [18]","herbicidal effect rating, M: velvetleaf [19]","herbicidal effect rating, F: southern crabgrass [20]","herbicidal effect rating, G: green foxtail [22]","M: velvetleaf, herbicidal effect [1]","R: persian speedwell, herbicidal effect [2]","P: chickweed, herbicidal effect [4]","N: redroot pigweed, herbicidal effect [7]","K: Italian ryegrass, herbicidal effect [8]","L: windgrass, herbicidal effect [10]","I: wild oat, herbicidal effect [12]",further results
Cc1nn(C)c(=O)c(-c2c(-c3ccc4c(c3)OCO4)sc3ccccc23)c1O [1-087],3 (Herbicidal rate of 40% or more and less than 70%),5 (Herbicidal rate of 90% or more (almost completely withered)),5 (Herbicidal rate of 90% or more (almost completely withered)),4 (Herbicidal rate of 70% or more and less than 90%),5 (Herbicidal rate of 90% or more (almost completely withered)),1 (Herbicidal rate of 5% or more and less than 20%),0 (Herbicidal rate of 5% or less (almost no effect)),2 (Herbicidal rate of 20% or more and less than 40%),4 (Herbicidal rate of 70% or more and less than 90%),5 (Herbicidal rate of 90% or more (almost completely withered)),0 (Herbicidal rate of 5% or less (almost no effect)),2 (Herbicidal rate of 20% or more and less than 40%),5 (Herbicidal rate of 90% or more (almost completely withered)),,,,,,,,"herbicidal effect grade, M: velvetleaf ([1]; 320 g/ha): 4 (Herbicidal rate of 70% or more and less than 90%); herbicidal effect grade, R: persian speedwell ([2]; 320 g/ha): 5 (Herbicidal rate of 90% or more (almost completely withered)); herbicidal effect grade, P: chickweed ([4]; 320 g/ha): 5 (Herbicidal rate of 90% or more (almost completely withered)); herbicidal effect grade, N: redroot pigweed ([7]; 320 g/ha): 5 (Herbicidal rate of 90% or more (almost completely withered)); herbicidal effect grade, K: Italian ryegrass ([8]; 320 g/ha): 3 (Herbicidal rate of 40% or more and less than 70%); herbicidal effect grade, L: windgrass ([10]; 320 g/ha): 0 (Herbicidal rate of 5% or less (almost no effect)); herbicidal effect grade, I: wild oat ([12]; 320 g/ha): 1 (Herbicidal rate of 5% or more and less than 20%); herbicidal effect grade, G: green foxtail ([14]; 320 g/ha): 5 (Herbicidal rate of 90% or more (almost completely withered)); herbicidal effect grade, J: blackgrass ([21]; 320 g/ha): 3 (Herbicidal rate of 40% or more and less than 70%)"
C=CCOc1ccccc1-c1sc2ccccc2c1-c1c(O)c(C)nn(C)c1=O [1-110],2 (Herbicidal rate of 20% or more and less than 40%),3 (Herbicidal rate of 40% or more and less than 70%),0 (Herbicidal rate of 5% or less (almost no effect)),4 (Herbicidal rate of 70% or more and less than 90%),4 (Herbicidal rate of 70% or more and less than 90%),2 (Herbicidal rate of 20% or more and less than 40%),1 (Herbicidal rate of 5% or more and less than 20%),3 (Herbicidal rate of 40% or more and less than 70%),3 (Herbicidal rate of 40% or more and less than 70%),0 (Herbicidal rate of 5% or less (almost no effect)),1 (Herbicidal rate of 5% or more and less than 20%),3 (Herbicidal rate of 40% or more and less than 70%),3 (Herbicidal rate of 40% or more and less than 70%),2 (Herbicidal rate of 20% or more and less than 40%),5 (Herbicidal rate of 90% or more (almost completely withered)),5 (Herbicidal rate of 90% or more (almost completely withered)),0 (Herbicidal rate of 5% or less (almost no effect)),0 (Herbicidal rate of 5% or less (almost no effect)),3 (Herbicidal rate of 40% or more and less than 70%),3 (Herbicidal rate of 40% or more and less than 70%),"G: green foxtail, herbicidal effect [14]: 4 (Herbicidal rate of 70% or more and less than 90%); J: blackgrass, herbicidal effect [21]: 4 (Herbicidal rate of 70% or more and less than 90%)"
CCCC(=O)Oc1c(C)nn(C)c(=O)c1-c1c(-c2ccc(C(F)(F)F)cc2)sc2ccccc12 [1-130],,,,4 (Herbicidal rate of 70% or more and less than 90%),5 (Herbicidal rate of 90% or more (almost completely withered)),2 (Herbicidal rate of 20% or more and less than 40%),,2 (Herbicidal rate of 20% or more and less than 40%),,,,,,5 (Herbicidal rate of 90% or more (almost completely withered)),5 (Herbicidal rate of 90% or more (almost completely withered)),5 (Herbicidal rate of 90% or more (almost completely withered)),4 (Herbicidal rate of 70% or more and less than 90%),5 (Herbicidal rate of 90% or more (almost completely withered)),3 (Herbicidal rate of 40% or more and less than 70%),0 (Herbicidal rate of 5% or less (almost no effect)),"K: Italian ryegrass, herbicidal effect rating ([3]; AAH 320 g/ha): 4 (Herbicidal rate of 70% or more and less than 90%); P: chickweed, herbicidal effect rating ([5]; AAH 320 g/ha): 3 (Herbicidal rate of 40% or more and less than 70%); O: lambsquarters, herbicidal effect rating ([6]; AAH 320 g/ha): 4 (Herbicidal rate of 70% or more and less than 90%); G: green foxtail, herbicidal effect [14]: 0 (Herbicidal rate of 5% or less (almost no effect)); I: wild oat, herbicidal effect rating ([15]; AAH 320 g/ha): 0 (Herbicidal rate of 5% or less (almost no effect)); H: barnyard grass, herbicidal effect rating ([17]; AAH 320 g/ha): 3 (Herbicidal rate of 40% or more and less than 70%); N: redroot pigweed, herbicidal effect rating ([18]; AAH 320 g/ha): 3 (Herbicidal rate of 40% or more and less than 70%); M: velvetleaf, herbicidal effect rating ([19]; AAH 320 g/ha): 1 (Herbicidal rate of 5% or more and less than 20%); F: southern crabgrass, herbicidal effect rating ([20]; AAH 320 g/ha): 1 (Herbicidal rate of 5% or more and less than 20%); J: blackgrass, herbicidal effect [21]: 0 (Herbicidal rate of 5% or less (almost no effect)); G: green foxtail, herbicidal effect rating ([22]; AAH 320 g/ha): 3 (Herbicidal rate of 40% or more and less than 70%)"
